Biological target: T1, Human Neuropeptide Y2 Receptor (Homo sapiens, UniProt P49146)
T1 construct: purchased CHEMICON HTS066M
T1 sequence (P49146 1-381): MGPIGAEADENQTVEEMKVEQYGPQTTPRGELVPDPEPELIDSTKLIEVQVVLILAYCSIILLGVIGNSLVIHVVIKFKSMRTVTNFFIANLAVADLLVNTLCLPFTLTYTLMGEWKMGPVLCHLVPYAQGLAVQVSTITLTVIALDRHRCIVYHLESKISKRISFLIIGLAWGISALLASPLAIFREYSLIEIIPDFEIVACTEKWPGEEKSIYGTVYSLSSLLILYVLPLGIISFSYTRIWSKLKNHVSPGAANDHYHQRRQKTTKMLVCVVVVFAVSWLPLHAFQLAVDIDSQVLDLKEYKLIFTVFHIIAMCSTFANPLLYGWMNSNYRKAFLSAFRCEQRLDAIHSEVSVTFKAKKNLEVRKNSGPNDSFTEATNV
Test: Radioligand binding competition assay (RLB)
Settings: Table 3; human 125I-PYY (1-36) 0.02 nM, Y2 receptor membranes; read-out: Ki
Procedure, shortened: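 Membranes from cells expressing human Y2 receptor (0.5 μg protein/well) were incubated with radioligand and serially diluted peptides in 50 mM HEPES, 5 mM MgCl2, 1 mM CaCl2, 0.2% ovalbumin, pH 7.4, for 2 h at room temperature with shaking. Bound radioactivity was collected by filtration and counted; IC50 from sigmoidal nonlinear regression.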

**Q.** CC(C)CC(=O)N[C@@H](C)C(=O)N1CCC[C@H]1C(=O)N[C@@H](CCC(=O)O)C(=O)N[C@@H](CCCCNC(=O)COCCOCCNC(=O)COCCOCCNC(=O)CC[C@H](NC(=O)CCCCCCCCCCCCCCCCC(=O)O)C(=O)O)C(=O)N1CCC[C@H]1C(=O)N[C@@H](CCC(=O)O)C(=O)N[C@@H](CCC(=O)O)C(=O)N[C@@H](CC(=O)O)C(=O)N[C@@H](C)C(=O)N[C@@H](CO)C(=O)N1CCC[C@H]1C(=O)N[C@@H](CCC(=O)O)C(=O)N[C@@H](CCC(=O)O)C(=O)N[C@@H](CC(C)C)C(=O)N[C@@H](CCC(N)=O)C(=O)N[C@@H](CCCNC(=N)N)C(=O)N[C@@H](Cc1ccc(O)cc1)C(=O)N[C@@H](Cc1ccc(O)cc1)C(=O)N[C@H](C(=O)N[C@@H](CO)C(=O)N[C@@H](CC(C)C)C(=O)N[C@@H](CCCNC(=N)N)C(=O)N[C@@H](Cc1c[nH]cn1)C(=O)N[C@@H](CCC(N)=O)C(=O)N[C@@H](Cc1ccc(O)cc1)C(=O)N[C@@H](CC(N)=O)C(=O)N[C@@H](Cc1c[nH]c2ccccc12)C(=O)N[C@@H](CC(C)C)C(=O)N[C@H](C(=O)N[C@@H](CCCNC(=N)N)C(=O)N[C@@H](CCC(N)=O)C(=O)N[C@@H](CCCNC(=N)N)C(=O)N[C@@H](Cc1ccc(O)cc1)C(N)=O)[C@@H](C)O)C(C)C [Compound 187, N{alpha-4}-(3-methylbutanoyl)-N{epsilon-7}-[2-(2-{2-[2-(2-{2-[(4S)-4-carboxy-4-(17-carboxyheptadecanamido)butanamido]ethoxy}ethoxy)acetamido]ethoxy}ethoxy)acetamido]-[4A,7K,9E,18Q,22V,27Q,28Y,30W,31L]hPYY (4-36)] was tested. Which Ki did it give?
**A.** 2.76 nM

**Q.** How did the Ki turn out when CC(C)CC(=O)N[C@@H](C)C(=O)N1CCC[C@H]1C(=O)N[C@@H](CCC(=O)O)C(=O)N[C@@H](CCCCNC(=O)COCCOCCNC(=O)COCCOCCNC(=O)CC[C@H](NC(=O)CCCCCCCCCCCCCCCCC(=O)O)C(=O)O)C(=O)N1CCC[C@H]1C(=O)N[C@@H](CCC(=O)O)C(=O)N[C@@H](CCC(=O)O)C(=O)N[C@@H](CC(=O)O)C(=O)N[C@@H](C)C(=O)N[C@@H](CO)C(=O)N[C@@H](CCC(=O)O)C(=O)N[C@@H](C)C(=O)N[C@@H](CCC(=O)O)C(=O)N[C@@H](CC(C)C)C(=O)N[C@@H](CCC(N)=O)C(=O)N[C@@H](CCCNC(=N)N)C(=O)N[C@@H](Cc1ccc(O)cc1)C(=O)N[C@@H](Cc1ccc(O)cc1)C(=O)N[C@H](C(=O)N[C@@H](CO)C(=O)N[C@@H](CC(C)C)C(=O)N[C@@H](CCCNC(=N)N)C(=O)N[C@@H](Cc1c[nH]cn1)C(=O)N[C@@H](Cc1ccc(O)cc1)C(=O)N[C@@H](Cc1ccc(O)cc1)C(=O)N[C@@H](CC(N)=O)C(=O)N[C@@H](Cc1c[nH]c2ccccc12)C(=O)N[C@@H](CC(C)C)C(=O)N[C@H](C(=O)N[C@@H](CCCNC(=N)N)C(=O)N[C@@H](CCC(N)=O)C(=O)N[C@@H](CCCNC(=N)N)C(=O)N[C@@H](Cc1ccc(O)cc1)C(N)=O)[C@@H](C)O)C(C)C [Compound 189, N{alpha-4}-(3-methylbutanoyl)-N{epsilon-7}-[2-(2-{2-[2-(2-{2-[(4S)-4-carboxy-4-(17-carboxyheptadecanamido)butanamido]ethoxy}ethoxy)acetamido]ethoxy}ethoxy)acetamido]-[4A,7K,9E,14E,15A,18Q,22V,28Y,30W,31L]hPYY (4-36)] was run?
**A.** 2.08 nM

**Q.** How did the Ki turn out when CC[C@H](C)[C@H](NC(=O)[C@H](Cc1ccc(O)cc1)NC(=O)[C@H](Cc1ccc(O)cc1)NC(=O)[C@H](CCCNC(=N)N)NC(=O)[C@H](CCC(N)=O)NC(=O)[C@H](CC(C)C)NC(=O)[C@H](CCC(=O)O)NC(=O)[C@H](CCC(=O)O)NC(=O)[C@@H]1CCCN1C(=O)[C@H](CO)NC(=O)[C@H](C)NC(=O)[C@H](CC(=O)O)NC(=O)[C@H](CCC(=O)O)NC(=O)[C@H](CCC(=O)O)NC(=O)[C@@H]1CCCN1C(=O)[C@H](CCCCNC(=O)COCCOCCNC(=O)COCCOCCNC(=O)CC[C@H](NC(=O)CCCCCCCCCCCCCCCCC(=O)O)C(=O)O)NC(=O)[C@H](CCC(=O)O)NC(=O)[C@@H]1CCCN1C(=O)[C@H](C)NC(=O)CC(C)C)C(=O)N[C@@H](CO)C(=O)N[C@@H](CC(C)C)C(=O)N[C@@H](CCCNC(=N)N)C(=O)N[C@@H](Cc1c[nH]cn1)C(=O)N[C@@H](Cc1ccc(O)cc1)C(=O)N[C@@H](Cc1ccc(O)cc1)C(=O)N[C@@H](CC(N)=O)C(=O)N[C@@H](Cc1c[nH]c2ccccc12)C(=O)N[C@@H](CC(C)C)C(=O)N[C@H](C(=O)N[C@@H](CCCNC(=N)N)C(=O)N[C@@H](CCC(N)=O)C(=O)N[C@@H](CCCNC(=N)N)C(=O)N[C@@H](Cc1ccc(O)cc1)C(N)=O)[C@@H](C)O [Compound 191, N{alpha-4}-(3-methylbutanoyl)-N{epsilon-7}-[2-(2-{2-[2-(2-{2-[(4S)-4-carboxy-4-(17-carboxyheptadecanamido)butanamido]ethoxy}ethoxy)acetamido]ethoxy}ethoxy)acetamido]-[4A,7K,9E,18Q,22I,28Y,30W,31L]hPYY (4-36)] was run?
**A.** 1.7 nM

**Q.** CC(C)CC(=O)N[C@@H](C)C(=O)N1CCC[C@H]1C(=O)N[C@@H](CCC(=O)O)C(=O)N[C@@H](CCCCNC(=O)COCCOCCNC(=O)COCCOCCNC(=O)CC[C@H](NC(=O)CCCCCCCCCCCCCCCCC(=O)O)C(=O)O)C(=O)N1CCC[C@H]1C(=O)N[C@@H](CCC(=O)O)C(=O)N[C@@H](CCC(=O)O)C(=O)N[C@@H](CC(=O)O)C(=O)N[C@@H](C)C(=O)N[C@@H](C)C(=O)N1CCC[C@H]1C(=O)N[C@@H](C)C(=O)N[C@@H](CCC(=O)O)C(=O)N[C@@H](CC(C)C)C(=O)N[C@@H](CCC(N)=O)C(=O)N[C@@H](CCCNC(=N)N)C(=O)N[C@@H](Cc1ccc(O)cc1)C(=O)N[C@@H](Cc1ccc(O)cc1)C(=O)N[C@H](C(=O)N[C@@H](CO)C(=O)N[C@@H](CC(C)C)C(=O)N[C@@H](CCCNC(=N)N)C(=O)N[C@@H](Cc1c[nH]cn1)C(=O)N[C@@H](Cc1ccc(O)cc1)C(=O)N[C@@H](Cc1ccc(O)cc1)C(=O)N[C@@H](CC(N)=O)C(=O)N[C@@H](Cc1c[nH]c2ccccc12)C(=O)N[C@@H](CC(C)C)C(=O)N[C@H](C(=O)N[C@@H](CCCNC(=N)N)C(=O)N[C@@H](CCC(N)=O)C(=O)N[C@@H](CCCNC(=N)N)C(=O)N[C@@H](Cc1ccc(O)cc1)C(N)=O)[C@@H](C)O)C(C)C [Compound 192, N{alpha-4}-(3-methylbutanoyl)-N{epsilon-7}-[2-(2-{2-[2-(2-{2-[(4S)-4-carboxy-4-(17-carboxyheptadecanamido)butanamido]ethoxy}ethoxy)acetamido]ethoxy}ethoxy)acetamido]-[4A,7K,9E,13A,15A,18Q,22V,28Y,30W,31L]hPYY (4-36)] was tested. Which Ki did it give?
**A.** 1.65 nM

**Q.** For CC(C)CC(=O)N[C@@H](C)C(=O)N1CCC[C@H]1C(=O)N[C@@H](C)C(=O)N[C@@H](CCCCNC(=O)COCCOCCNC(=O)COCCOCCNC(=O)CC[C@H](NC(=O)CCCCCCCCCCCCCCCCC(=O)O)C(=O)O)C(=O)N1CCC[C@H]1C(=O)N1CCC[C@H]1C(=O)N[C@@H](CCC(=O)O)C(=O)N[C@@H](CC(=O)O)C(=O)N[C@@H](C)C(=O)N[C@@H](CCC(=O)O)C(=O)N1CCC[C@H]1C(=O)N[C@@H](CCC(=O)O)C(=O)N[C@@H](CCC(=O)O)C(=O)N[C@@H](CC(C)C)C(=O)N[C@@H](CCC(N)=O)C(=O)N[C@@H](CCCNC(=N)N)C(=O)N[C@@H](Cc1ccc(O)cc1)C(=O)N[C@@H](Cc1ccc(O)cc1)C(=O)N[C@H](C(=O)N[C@@H](CO)C(=O)N[C@@H](CC(C)C)C(=O)N[C@@H](CCCNC(=N)N)C(=O)N[C@@H](Cc1c[nH]cn1)C(=O)N[C@@H](Cc1ccc(O)cc1)C(=O)N[C@@H](Cc1ccc(O)cc1)C(=O)N[C@@H](CC(N)=O)C(=O)N[C@@H](Cc1c[nH]c2ccccc12)C(=O)N[C@@H](CC(C)C)C(=O)N[C@H](C(=O)N[C@@H](CCCNC(=N)N)C(=O)N[C@@H](CCC(N)=O)C(=O)N[C@@H](CCCNC(=N)N)C(=O)N[C@@H](Cc1ccc(O)cc1)C(N)=O)[C@@H](C)O)C(C)C [Compound 196, N{alpha-4}-(3-methylbutanoyl)-N{epsilon-7}-[2-(2-{2-[2-(2-{2-[(4S)-4-carboxy-4-(17-carboxyheptadecanamido)butanamido]ethoxy}ethoxy)acetamido]ethoxy}ethoxy)acetamido]-[4A,6A,7K,9P,13E,18Q,22V,28Y,30W,31L]hPYY (4-36)], which Ki is on record?
**A.** 0.98 nM

**Q.** How did the Ki turn out when CC(C)CC(=O)N[C@@H](C)C(=O)N1CCC[C@H]1C(=O)N[C@@H](C)C(=O)N[C@@H](CCCCNC(=O)COCCOCCNC(=O)COCCOCCNC(=O)CC[C@H](NC(=O)CCCCCCCCCCCCCCCCC(=O)O)C(=O)O)C(=O)N1CCC[C@H]1C(=O)N[C@@H](CCC(=O)O)C(=O)N[C@@H](C)C(=O)N[C@@H](CC(=O)O)C(=O)N[C@@H](C)C(=O)N[C@@H](CO)C(=O)N1CCC[C@H]1C(=O)N[C@@H](CCC(=O)O)C(=O)N[C@@H](CCC(=O)O)C(=O)N[C@@H](CC(C)C)C(=O)N[C@@H](CCC(N)=O)C(=O)N[C@@H](CCCNC(=N)N)C(=O)N[C@@H](Cc1ccc(O)cc1)C(=O)N[C@@H](Cc1ccc(O)cc1)C(=O)N[C@H](C(=O)N[C@@H](CCC(=O)O)C(=O)N[C@@H](CC(C)C)C(=O)N[C@@H](CCCNC(=N)N)C(=O)N[C@@H](Cc1c[nH]cn1)C(=O)N[C@@H](Cc1ccc(O)cc1)C(=O)N[C@@H](Cc1ccc(O)cc1)C(=O)N[C@@H](CC(N)=O)C(=O)N[C@@H](Cc1c[nH]c2ccccc12)C(=O)N[C@@H](CC(C)C)C(=O)N[C@H](C(=O)N[C@@H](CCCNC(=N)N)C(=O)N[C@@H](CCC(N)=O)C(=O)N[C@@H](CCCNC(=N)N)C(=O)N[C@@H](Cc1ccc(O)cc1)C(N)=O)[C@@H](C)O)C(C)C [Compound 197, N{alpha-4}-(3-methylbutanoyl)-N{epsilon-7}-[2-(2-{2-[2-(2-{2-[(4S)-4-carboxy-4-(17-carboxyheptadecanamido)butanamido]ethoxy}ethoxy)acetamido]ethoxy}ethoxy)acetamido]-[4A,6A,7K,9E,10A,18Q,22V,23E,28Y,30W,31L]hPYY (4-36)] was run?
**A.** 0.87 nM

From US12559529B2, “NPY2 receptor agonists” (Boehringer Ingelheim International GmbH, priority 2019, dated 2026)
